Source: patent US20220040253A1, “Agonists of Human Kisspeptin Receptor for Modulating Sexual Desire” (Université de Liège, priority 2019, published 2022)
Entries after “also recorded” stand apart in the source; their conditions may differ. No end group written: not given here.

Tests used:
female mice [1] = test: Lordosis test without photostimulation (lordosis quotient); format: in vivo, mouse
Protocol: Unless otherwise stated, females were ovariectomized in adulthood (>8 weeks of age) under general anesthesia after either subcutaneous (sc) injections of ketamine (80 mg kg^−1 per mouse) and medetomidine (Domitor, Pfizer, 1 mg kg^−1 per mouse) or under 5% isoflurane, in order to control for endogenous hormone concentrations and to prevent pregnancies upon repeated testing. At the same time, all females received a 5 mm-long Silastic capsule (inner diameter: 1.57 mm; outer diameter: 2.41 mm) containing crystalline 17β-estradiol (diluted 1:1 with cholesterol) subcutaneously in the neck. The dose of E2 (E8875, Sigma) was based on a previous study^62 showing that this treatment leads to estradiol levels similar to mice in estrus. At the end of surgery, females under ketamine/medetomidine anesthesia received a sc injection of atipamezole (Antisedan, Pfizer, 4 mg kg^−1 per mouse) to antagonize medetomidine-induced effects and accelerate recovery. In order to induce sexual receptivity at the day of testing, all females received a subcutaneous injection with progesterone (500 μg, P0130, Sigma) 3 h before the onset of the behavioral test, unless stated otherwise (for overview of all the different hormone treatments, see Table 1). […]
Kisspeptin-10 (Kp-10) was synthesized in Strasbourg, France (Sequence: Tyr-Asn-Trp-Asn-Ser-Phe-Gly-Leu-Arg-Tyr-NH2, NeoMPS; weight=25.7 mg). To determine whether kisspeptin stimulated female sexual behavior in wildtype C57BL/6J mice, females received a sc injection of Kp-10 at the dose of 0.52 μg kg^−1 (injection volume 100 μl) 2h before the lordosis test. Each animal was used as its own control, i.e. the animal was injected one day with Kp-10 and the other day with saline. Females were not injected with progesterone in this particular experiment. Injections were separated by at least 3 days. […]
Females were subjected to weekly lordosis tests in a Plexiglas aquarium (37 cm long×17 cm high×21 cm wide). A sexually experienced male was placed alone in the aquarium and allowed to adapt for 15 min. Subsequently, 3 h after receiving a subcutaneous progesterone injection (500 μg, P0130, Sigma) to induce behavioral estrus, the lordosis responses of the female to the mounts of the stimulus male were recorded. The test lasted until the female received 10 mounts or 10 min had elapsed. For the first experiment (mating-induced Fos activation) ovary intact females were paired with males during 30 minutes. […] Before each experimental condition (drug injection, cell ablation, optogenetic stimulation), all females were subjected to at least three lordosis tests (with progesterone) in order to acquire sufficient sexual experience and thus a significant LQ. Tests were performed during the dark phase of the light cycle (5 h after lights out; for details, see^67). For all details on the different hormone treatments (estradiol versus estradiol+progesterone), see Table 1.

female mice [2] = test: Mate preference test (three-compartment box, preference score); format: in vivo, mouse
Protocol: Unless otherwise stated, females were ovariectomized in adulthood (>8 weeks of age) under general anesthesia after either subcutaneous (sc) injections of ketamine (80 mg kg^−1 per mouse) and medetomidine (Domitor, Pfizer, 1 mg kg^−1 per mouse) or under 5% isoflurane, in order to control for endogenous hormone concentrations and to prevent pregnancies upon repeated testing. At the same time, all females received a 5 mm-long Silastic capsule (inner diameter: 1.57 mm; outer diameter: 2.41 mm) containing crystalline 17β-estradiol (diluted 1:1 with cholesterol) subcutaneously in the neck. The dose of E2 (E8875, Sigma) was based on a previous study^62 showing that this treatment leads to estradiol levels similar to mice in estrus. At the end of surgery, females under ketamine/medetomidine anesthesia received a sc injection of atipamezole (Antisedan, Pfizer, 4 mg kg^−1 per mouse) to antagonize medetomidine-induced effects and accelerate recovery. In order to induce sexual receptivity at the day of testing, all females received a subcutaneous injection with progesterone (500 μg, P0130, Sigma) 3 h before the onset of the behavioral test, unless stated otherwise (for overview of all the different hormone treatments, see Table 1).
Kisspeptin-10 (Kp-10) was synthesized in Strasbourg, France (Sequence: Tyr-Asn-Trp-Asn-Ser-Phe-Gly-Leu-Arg-Tyr-NH2, NeoMPS; weight=25.7 mg). To determine whether kisspeptin stimulated female sexual behavior in wildtype C57BL/6J mice, females received a sc injection of Kp-10 at the dose of 0.52 μg kg^−1 (injection volume 100 μl) 2h before the lordosis test. Each animal was used as its own control, i.e. the animal was injected one day with Kp-10 and the other day with saline. Females were not injected with progesterone in this particular experiment. Injections were separated by at least 3 days.
Two hours before mate preference test, female mice received a single sc injection of GnRH (0.025 mg kg^−1, Polypeptide Laboratories France SAS, SC087).
S-nitroso-N-acetyl-DL-Penicillamine (SNAP) (N398-Sigma) is a NO donor. […]
To assess mate preferences shown in response to auditory and olfactory stimuli, we used a box (60 cm long×30 cm high×13 cm wide) that was divided into three compartments using perforated opaque partitions. […] The time the subject spent poking her nose through the holes of the partition or actively sniffing the bottom of the partition in front of the female versus male stimulus animal was recorded. A preference score was calculated by dividing the time spent investigating the male compartment minus the time spent investigating the female compartment by the total time spent investigating both compartments. […]

[3] = tested on: human female patients diagnosed with HSDD; test: Vaginal photoplethysmography (vaginal blood flow) while watching erotic or neutral images; format: in vivo; conditions: single sc injection 6.4 nmol/kg
Protocol: 20 human female patients diagnosed with HSDD receive either a single subcutaneous (sc) injection of kisspeptin-54 (SEQ ID NO: 17) at a dose of 6.4 nmol/kg of body weight or a sc injection of saline (i.e. control). The sexual desire of the patients is measured using vaginal photoplethysmography, which has been used to assess female genital arousal. It consists of a tampon-sized acrylic device containing a light emitting diode and a phototransistor to detect light to measure vaginal blood flow with increased sexual desire leading to increased vaginal blood flow. The sexual desire of the patients is scored starting 15 minutes after administration of sc kisspeptin or saline when watching either erotic images or neutral images. […] Any effects of kisspeptin on sexual desire disappear by 4 h after the injection.

[4] = tested on: human female patients diagnosed with HSDD; test: Brain activation by BOLD MRI while watching erotic pictures; format: in vivo; conditions: single sc injection 6.4 nmol/kg; scan 30 minutes after injection; versus saline session
Protocol: 20 human female patients diagnosed with HSDD receive either a single subcutaneous (sc) injection of kisspeptin-54 (SEQ ID NO: 17) at a dose of 6.4 nmol/kg of body weight or a sc injection of a saline (i.e. control). The sexual desire of the patients is measured by determining their brain activation using magnetic resonance imaging (MRI) with the blood-oxygenation-level-dependent (BOLD) technique to identify and quantify brain regions associated with visually evoked sexual arousal in women. All female patients are subjected to two sessions on separate days with at least 1 month in between the sessions to act as their own control. They receive in one session kisspeptin-54 and in the other one saline, the order will be randomized. Female patients are positioned into the MRI scanner 30 minutes after the sc injection and three dimensional images are taken of the brain when watching a series of erotic pictures as well as more neutral pictures to serve as control condition using an event-related design. The task is followed by an anatomical scan in which high resolution T1-weighted images are taken to determine the anatomical boundaries of the activation observed during the visual task.

For “Tyr-Asn-Trp-Asn-Ser-Phe-Gly-Leu-Arg-Tyr-NH2 (YNWNSFGLRY-NH2) [Kp-10, Kisspeptin-10 synthesized in Strasbourg (NeoMPS), the decapeptide injected in mice]”, the lordosis behavior (female mice [1]; Kiss-/- (OVX+E+P) females with lordosis deficits, single sc injection, FIG. 4d) was “induced lordosis behavior; also recorded: could be reversed”, the lordosis behavior (female mice [1]; WT C57BL/6J OVX+E females (no progesterone), sc 0.52 μg/kg 2 h before test, P<0.001, FIG. 4b) was “robustly stimulated lordosis behavior” and the lordosis behavior (female mice [1]; WT C57Bl6 (OVX+E+P) females, intracerebroventricular 10.4 ng/kg 1 h before test, P=0.012, FIG. 6) was “stimulates lordosis behavior; also recorded: also stimulated lordosis behavior”. The lordosis behavior (female mice [1]; nNOS-/- (OVX+E+P) females, sc injection, P=0.56, FIG. 11c) was “failed to restore lordosis behavior”, the lordosis behavior (female mice [1]; nNOS-/- (OVX+E+P) females, sc injection, P=0.56, FIG. 11c, listed as KP-10) was “failed to stimulate lordosis behavior” and the “male-directed preference (preference score)” value (shortened to “male-directed preference”) (female mice [2]; GnRH::Cre, Dicer loxP/loxP females (OVX+E+P), sc injection, P=0.38, FIG. 9a) was “failed to elicit a male-directed preference”. For the same substance, the “male-directed preference” value (female mice [2]; Kiss-/- (OVX+E+P) females, single sc injection 0.52 μg kg^-1, P<0.001, FIG. 1b) was “induced a very strong preference for the male; also recorded: triggered a male-directed preference” and the “male-directed preference” value (female mice [2]; KissIC Cre+ females (OVX+E+P) after AAV-Casp3 ablation of RP3V kisspeptin neurons, single sc injection, P=0.041, FIG. 1e) was “induced a male-directed preference; also recorded: sufficient to induce a male-directed preference”.

With “kisspeptin-54: human kisspeptin-54, SEQ ID NO: 17, amino acids 68 to 121 of NP_002247.3 (GTSLSPPPESSGSPQQPGLSAPHSRQIPAPQGAVLVQREKDLPNYNWNSFGLRF; listed as Homo sapiens)” the “time by which effects on sexual desire disappear after the injection” value [3] was no more than 4 h, the “vaginal blood flow when watching neutral images” value ([3]; scored from 15 minutes after administration) was “not when watching neutral images” and the “vaginal blood flow when watching erotic images” value ([3]; scored from 15 minutes after administration, versus saline) was “show increased vaginal blood flow”. The “brain activation when watching the images (BOLD MRI)” value [4] was “show increased brain activation”.

In the case of “GnRH: GnRH from Polypeptide Laboratories France SAS, SC087 (QHWSYGLRPG; Gonadoliberin-1; UniProt P01148 24-33, looked up) [reference compound]”, the lordosis behavior (female mice [1]; Kiss-/- (OVX+E) females, single injection, P=0.65, FIG. 9c) is reported as “failed to stimulate lordosis behavior”, the lordosis behavior (female mice [1]; nNOS-/- (OVX+E) females, sc injection, P=0.19, FIG. 11c) is reported as “failed to restore lordosis behavior; also recorded: failed to stimulate lordosis behavior” and the “male-directed preference” value (female mice [2]; GnRH::Cre, Dicer loxP/loxP females (OVX+E), single sc injection 0.025 mg kg^-1, P=0.01, FIG. 9a) is reported as “induced a male-directed preference; also recorded: restored this behavior”.
